System: node-positive breast cancers
Assay: GEICAM/9906 randomized phase III adjuvant trial, FEC versus FEC-P: overall and disease-free survival, by PAM50 proliferation score
Type: in vivo, human
Conditions: FEC-P vs. FEC; lowest quartile of 11-gene proliferation score
Description: The primary endpoint of the […]/9906 clinical trial was disease-free survival. Secondary endpoints were: (a) overall survival; (b) prognostic and predictive value of molecular/genomic markers and (c) safety. The study was performed in accordance with the Declaration of Helsinki, approved by the ethics committees at all participating institutions and the Spanish Health Authority, and it was registered at www.clinicaltrials.gov (identifier code: NCT00129922). All patients provided written informed consent for therapy randomization and molecular analyses. […] Samples were gene expression profiled using the previously described RT-qPCR assay and analyzed using the clinical algorithm for subtype prediction (Parker et al., J Clin Oncol 27:1160-1167, 2009; Amp Laboratories: PAM50 Breast Cancer Intrinsic Classifier Information. at the World Wide Web (www) aruplab.com/Lab-Tests/General-Oncology/PAM50/index.jsp). […] In addition to the subtype classification, a PAM50proliferation score was calculated using the previously described 11-gene signature (BIRC5, CCNB1, CDC20, CDCA1, CEP55, KNTC2, MKI67, PTTG1, RRM2, TYMS, UBE2C) (Nielsen et al., Clin Cancer Res 16(21):5222-32, 2010). The significance of proliferation was evaluated using a classification into quartiles, and using the proliferation scores as a continuous variable. […]

**Q.** For `CC(=O)O[C@H]1C(=O)[C@@]2(C)[C@H]([C@H](OC(=O)c3ccccc3)[C@]3(O)C[C@H](OC(=O)[C@H](O)[C@@H](NC(=O)c4ccccc4)c4ccccc4)C(C)=C1C3(C)C)[C@]1(OC(C)=O)CO[C@@H]1C[C@@H]2O` [paclitaxel], which “HR for OS, low proliferation score” value is on record?
**A.** 0.232

Reference: patent US9181588B2, “Methods of treating breast cancer with taxane therapy” (The University of Utah Research Foundation, priority 2011, dated 2015)
